Results on two molecules are retold here after patent publication US8501166B2, “Pyrimidinyl indole compounds” (Hutchison Medipharma Limited, priority 2010, dated 2013).

Counter-ions that a name gives are not always drawn.

For assay [1], the system named is LPS-induced plasma TNFα production. Nature of the assay: LPS-induced plasma cytokine production in mouse, TNFα. The format is in vivo, Balb/c mice. The protocol:
Balb/c mice (female, body weight from 18 to 20 g) are used in these experiments. The dose dependency, time course study and pharmacokinetic/pharmacodynamic relationship of the test compound are conducted in mice treated with LPS (0.4 mg/kg).
Eight mice/group are administrated with 1 to 100 mg/kg of either the test compound (suspension in 10% acacia) or vehicle by oral gavage at 1 h prior to intraperitoneal injection of 0.4 mg/kg LPS. Ninety minutes after LPS administration, blood samples are collected in tubes containing heparin for anticoagulation. Plasma samples are diluted 3-fold with dilution buffer (R&D, Cat.No. Part 895206, Calibrator Diluent RD5Z). TNFα levels are measured using ELISA kit (R&D, Cat.No. MTA00) based on manufacture's protocol. Data is acquired using a SPECTRAMAX® M2e Plus Plate Reader and analyzed by standard curve fitting.
Alternately, the compound is screened for its ability to inhibit the LPS-induced cytokine production in rat plasma according to the method reported in the literature (Ziegelbauer K, Gantner F, Lukacs N W, et al. Br J. Pharmacol. 2005,145(2):178-92). Briefly, Lewis rats (male, body weight 140 g-180 g) are used in the experiments. Animals (8/group) are given 1 to 100 mg/kg of the testing compound (suspension in 35% solutol & 60% PEG400 & 5% PG) or vehicle by oral gavage at 1 h prior to intraperitoneal administration of LPS 0.4 mg/kg. Ninety minutes after the intraperitoneal administration of LPS, blood is collected in heparin anticoagulated tubes to measure TNFα using R&D System ELISA Kit based on the general Kit protocols. The plasma sample is diluted 100 fold with the dilution buffer and 50 μL of diluted sample is used in each measurement. The plate is read on a SPECTRAMAX® M2e Plus Plate Reader and TNFα levels are analyzed based on the standard curve. The drug levels in plasma are measured with LC-MS-MS. […] Alternately, the compound is screened for its ability to inhibit the LPS-induced cytokine production in mouse plasma. Balb/c mice (female, body weight 18-20 g) are used in the experiments. Mice (8/group) are administrated with 1 to 100 mg/kg of the test compound (suspension in 10% acacia) or vehicle by oral gavage at 1 h prior to introperitoneal (i.p.) administration of LPS (0.4 mg/kg). Ninety minutes after LPS administration, blood is collected with heparin anticoagulated tubes to measure TNFα levels (R&D, Cat.No. MTA00), IL-6 (R&D, Cat.No. M6000B) and IL-1β (R&D, Cat.No. MLB00B) based on the general kit protocols. Diluted or undiluted plasma samples of 50 μL are used for each measurement. […] The plate is read on a SPECTRMAX® M2e Plus Plate Reader and the data is analyzed using a standard curve.

The subject of assay [2] is collagen induced arthritis. Nature of the assay: Collagen induced arthritis (CIA) model in mice. The format is in vivo, DBA/1 mice. The protocol:
Previous studies have shown that small molecular inhibitors of IKKβ are efficacious in a mouse CIA model (Podolin, P L et al, J. Pharm. Exp. Ther., 2005, 312: 373-381). In addition, mice with T cells expressing a dominant—negative form of IkBa are protected from developing CIA (Seetharaman R. et al. J. Immunol. 1999: 163, 1577-1583). […] Therefore a compound of the present invention is tested in the collagen induced arthritis (CIA) model in mice essentially as described in a method reported in the literature (Rosloniec E F, Cremer M, Kang A, Myers L K. Current Protocols in Immunology. 1996, 15.5.1-15.5.24).
Briefly, DBA/1 mice are immunized intradermally with chicken collagen II (200 μg/mouse) emulsified with Freund's complete adjuvant (CFA, Sigma, US) on day 0 and day 21 to elicit arthritis. The severity of arthritis is assessed using a visual scoring system, in which each paw is graded from 0 to 4 (0=normal, 4=severe swelling of the entire paw). The hind joint thicknesses are measured with a micrometer. The testing compound is orally administered for either prophylactic or therapeutic purposes. For the prophylactic study, the testing compound is orally administered twice daily from day 1 to day 42. For the therapeutic study, the drug treatment is started after the onset of arthritis, which usually occurs within one week of 2nd immunization. Mice are treated with the drug for 21 days. […]

Assay [3] deals with TNFα gene expression in U87MG xenograft. Nature of the assay: Inhibition of TNFα induced TNFα gene expression in U87MG xenograft. The format is in vivo, Balb/c athymic nude mice. The protocol:
TNFα stimulates IKKβ signaling and triggers TNFα gene expression. In order to confirm that a compound is targeting IKKβ in vivo, the compound is screened for its ability to inhibit TNFα induced TNFα gene expression in a U87MG (human glioblastoma cell line) xenograft. 3×10^6 U87MG tumor cells are implanted subcutaneously into the right lateral flank of female Balb/c athymic nude mice (6-8 weeks old). […] Nude mice are orally administered with the test compound at 2 h prior to tumor harvesting. TNFα (R&D, Cat: 210-TA) is intravenously injected at 1 h before tumor harvesting at 8 μg/kg.
Total RNA is extracted using the RNEASY® mini Kit (QIAGEN®, Cat: 74126). cDNA is synthesized using the High Capacity cDNA reverse transcription kit (ABI, Cat: 4368813). Quantitative real-time PCR is carried out in a 7500 real-time PCR system (Applied Biosystems) using the corresponding primers/probes for human GAPDH gene(ABI Hs99999905_ml) and human TNFα gene(ABI Hs00174128_ml) and ABgene Absolute QPCR ROX 2× master mix(AB-1139/B).
TNFα gene expression is normalized to β-actin gene expression. The gene counts are read from PCR machine Inhibition (%)=(Counts of Model—Counts of Treatment)/(Counts of Model-Counts of Control)×100%. Example 1 is specifically detailed in Table 3.

[4] abbreviates: mouse, oral 1 h before LPS 0.4 mg/kg i.p.

Regarding `Cl.O=C(NC1CC1)c1cccc2[nH]c(-c3nc(N[C@@H]4CCC[C@H]4O)ncc3Cl)cc12` [Example 2, 2-{5-Chloro-2-[(1R,2R)-2-hydroxycyclopentylamino]pyrimidin-4-yl}-N-cyclopropyl-1H-indole-4-carboxamide hydrochloride], in assay [1] (setting [4]), the EC50 (in general, the concentration that produces a half-maximal response) was roughly 2.42 µg/mL. Also, the median effective dose (ED50) – broadly, the dose that gives a 50% effect, or the effect in half of the subjects – is 4.84 mg/kg in assay [1] (setting [4]); 4.3 mg/kg in assay [2] (1008 h, mouse CIA, oral bid for 42 days, read-out: ED50, joint swelling and arthritis scores). The “joint swelling and arthritis scores” value in assay [2] (10 and 30 mg/kg bid (20 and 60 mg/kg/day)) is “Statistically significant inhibition of joint swelling and reduction of arthritis scores”. The “Inhibition Rate (%) of TNFα induced TNFα gene expression” value in assay [3] (Table 4, 3 mg/kg oral) was 10.7%; in assay [3] (Table 4, 10 mg/kg oral) it was 25.3%; in assay [3] (Table 4, 30 mg/kg oral), 69.7%; in assay [3] (Table 4, 60 mg/kg oral), 87.8%.
As to `O=C(NC1CC1)c1cccc2[nH]c(-c3nc(N[C@@H]4CCC[C@@H]4O)ncc3Cl)cc12` [Example 1, 2-{5-Chloro-2-[(1R,2S)-2-hydroxycyclopentylamino]pyrimidin-4-yl}-N-cyclopropyl-1H-indole-4-carboxamide hydrochloride], in assay [1] (10 mg/kg oral 1 h before LPS 0.4 mg/kg, 90 min after LPS, baseline 2346.2 pg/mL), the “plasma TNFα level” value came to 1474.9 pg/mL. Also, in assay [1] (Mus musculus, 10 mg/kg oral 1 h before LPS 0.4 mg/kg, p<0.01), at 10 mg/kg the inhibition was 37.1%. The “Inhibition Rate (%) of TNFα induced TNFα gene expression” value in assay [3] (10 mg/kg oral, 2 h) is 49.1%; in assay [3] (30 mg/kg oral, 2 h), 68.5%; in assay [3] (60 mg/kg oral, 2 h), 86.2%; in assay [3] (100 mg/kg oral, 2 h), 94.9%.
